# According to ChEMBL document CHEMBL4390655, “N,N-bis-heteroaryl methylamines: Potent anti-mitotic and highly cytotoxic agents” (Eur J Med Chem, 2019):
# The source made the active and inactive calls. No cut-off for these calls is given here.
# Columns and labels:
# [1] = Inhibition of sheep brain tubulin polymerization in presence of GTP by DAPI based fluorimetric method; set-up: species or system Ovis aries
# [2] = test system: HCT-116; assay: Cytotoxicity against human HCT116 cells assessed as reduction in cell growth measured after 72 hrs by MTS assay; type: functional, cell-based
# [3] = test system: K-562R; assay: Cytotoxicity against human K562R cells assessed as reduction in cell growth measured after 72 hrs by MTS assay; type: functional, cell-based
# [4] = test system: MIA PaCa-2; assay: Cytotoxicity against human MIAPaCa2 cells assessed as reduction in cell growth measured after 72 hrs by MTS assay; type: functional, cell-based; details: MIA PaCa-2, 72 h
# [5] = test system: A2780; assay: Cytotoxicity against human A2780 cells assessed as reduction in cell growth measured after 72 hrs by MTS assay; type: functional, cell-based; details: A2780, 72 h
# [6] = test system: K562; assay: Cytotoxicity against human K562 cells assessed as reduction in cell growth measured after 72 hrs by MTS assay; type: functional, cell-based; details: K562, 72 h
# [7] = test system: JIMT-1; assay: Cytotoxicity against human JIMT1 cells assessed as reduction in cell growth measured after 72 hrs by MTS assay; type: functional, cell-based; details: JIMT-1, 72 h
# [8] = Cytotoxicity against human A2780R cells assessed as reduction in cell growth measured after 72 hrs by MTS assay; type: functional, cell-based
# [9] = test system: HCT-116; assay: Cell cycle arrest in human HCT116 cells assessed as accumulation at G0/G1 phase at 10 nM incubated for 24 hrs by propidium iodide staining based flow cytometry (reference value: 37%); type: functional
# [10] = test system: HUVEC; assay: Antivascular activity against HUVEC assessed as reduction in capillary like tube formation by measuring disruption of cell network integrity at 10 nM measured up to 5 hrs by matrigel method relative to control; type: functional, cell-based; details: Homo sapiens
# [11] = test system: HCT-116; assay: Cell cycle arrest in human HCT116 cells assessed as accumulation at S phase at 1 nM incubated for 24 hrs by propidium iodide staining based flow cytometry (reference value: 40%); type: functional
# [12] = test system: HCT-116; assay: Cell cycle arrest in human HCT116 cells assessed as accumulation at G0/G1 phase at 5 nM incubated for 24 hrs by propidium iodide staining based flow cytometry (reference value: 37%); type: functional
# [13] = test system: HCT-116; assay: Induction of apoptosis in human HCT116 cells assessed as caspase-3/7 activation at 0.1 to 10 nM after 24 hrs by Apo-one caspase 3/7 assay; type: functional, cell-based
# [14] = test system: HCT-116; assay: Cell cycle arrest in human HCT116 cells assessed as accumulation at G0/G1 phase at 1 nM incubated for 24 hrs by propidium iodide staining based flow cytometry (reference value: 37%); type: functional
# [15] = test system: HCT-116; assay: Cell cycle arrest in human HCT116 cells assessed as accumulation at G2/M phase at 1 nM incubated for 24 hrs by propidium iodide staining based flow cytometry (reference value: 23%); type: functional
# [16] = test system: HCT-116; assay: Cell cycle arrest in human HCT116 cells assessed as accumulation at S phase at 5 nM incubated for 24 hrs by propidium iodide staining based flow cytometry (reference value: 40%); type: functional
# [17] = Antiproliferative activity against HUVEC assessed as growth inhibition after 72 hrs; type: cell-based; details: human, HUVEC cells
# [18] = test system: HCT-116; assay: Cell cycle arrest in human HCT116 cells assessed as accumulation at G2/M phase incubated for 24 hrs by propidium iodide staining based flow cytometry; type: functional
# [19] = test system: HCT-116; assay: Cell cycle arrest in human HCT116 cells assessed as accumulation at G2/M phase at 10 nM incubated for 24 hrs by propidium iodide staining based flow cytometry (reference value: 23%); type: functional
# [20] = test system: HCT-116; assay: Cell cycle arrest in human HCT116 cells assessed as accumulation at S phase at 10 nM incubated for 24 hrs by propidium iodide staining based flow cytometry (reference value: 40%); type: functional
# [21] = test system: HUVEC; assay: Antiproliferative activity against human HUVEC assessed as growth inhibition up to 5 hrs; type: cell-based
# [22] = test system: HCT-116; assay: Cell cycle arrest in human HCT116 cells assessed as accumulation at G2/M phase at 5 nM incubated for 24 hrs by propidium iodide staining based flow cytometry (reference value: 23%); type: functional
# [23] = Homo sapiens, HCT-116, 72 h, read-out: IC50
SMILES,IC50 ([1]; read-out: IC50) [nM],IC50 [1],"IC50 [2, 23] [nM]",also measured
Cc1cc(N(C)c2ccc3c(c2)c2ccccc2n3C)c2cc([N+](=O)[O-])ccc2n1,,Not Active,623,
COc1ccc(N(C)c2cc(C)nc3ccccc23)nc1O,,Not Active,205,
CN(c1ccc2c(ccn2C)c1)c1nc(Cl)nc2ccccc12,1190,,0.2,IC50 [3]: 1.77 nM; IC50 [4]: 0.62 nM; IC50 [5]: 0.24 nM; IC50 [6]: 0.77 nM; IC50 [7]: 0.52 nM; IC50 [8]: 2.34 nM
CN(c1ccc2c(c1)c1ccccc1n2C)c1ccnc2ccccc12,,Not Active,943,
Cc1cc(N(C)c2ccc3c(c2)c2cc(C(C)O)ccc2n3C)c2ccccc2n1 (stereo not given),,Not Active,219,
Cc1cc(N(C)c2ccc3c(c2)OCCO3)c2ccccc2n1,4080,,20.7,
Cc1cc(N(C)c2ccc3c(c2)c2ccccc2n3C)c2cc(N)ccc2n1,5760,,24.5,
CCn1c2ccccc2c2cc(N(C)c3cc(C)nc4ccccc34)ccc21,,Not Active,186,
C=C(c1ccc(OC)c(O)c1)c1cc(OC)c(OC)c(OC)c1,1000,,1.8,IC50 [4]: 5 nM; IC50 [5]: 3.01 nM; IC50 [7]: 3.08 nM; IC50 [8]: 2.66 nM
Cc1cc(N(C)c2ccc3c(ccn3C)c2)c2ccccc2n1,1340,,2,
COc1ccc(N(C)c2cc(C)nc3ccccc23)nc1N,900,,1.73,
Cc1cc(N(C)c2ccc3c(c2)c2ccccc2n3C)ccn1,,Not Active,879,
Cc1cc(N(C)c2ccc3c(c2)c2ccccc2n3C)c2cccc(O)c2n1,1240,,50.6,
CN(c1ccc2c(c1)c1ccccc1n2C)c1cc(C(F)(F)F)nc2ccccc12,,Not Active,847,
CN(c1ccc2c(ccn2C)c1)c1cc(C(F)(F)F)nc2ccccc12,2500,,3.28,

# More lines, main results first:
IC50 ([1]; read-out: IC50) [nM],IC50 [1],SMILES,"IC50 [2, 23] [nM]",also measured
2760,,Cc1cc(N(C)c2ccc3c(c2)c2cc(N)ccc2n3C)c2ccccc2n1,2.88,
,Not Active,COc1ccc(N(C)c2cc(C)nc3ccccc23)nc1Cl,462,
1400,,CN(c1ccc2c(c1)c1ccccc1n2C)c1cc(C#N)nc2ccccc12,12,
,Not Active,C=C(c1cc(N(C)c2cc(C)nc3ccccc23)ccc1OC)c1cc(C)nc2ccccc12,969,
,Not Active,COc1ccc2c(ccn2-c2cc(C)nc3ccccc23)c1,482,
,Not Active,Cn1c2ccccc2c2cc([N+](C)(C)c3ccnc4ccccc34)ccc21.[I-],891,
1480,,COc1cccc2c(N(C)c3ccc4c(c3)c3ccccc3n4C)cc(C)nc12,21.6,
,Not Active,Cc1cc(N(C)c2ccc3[nH]c4ccccc4c3c2)c2ccccc2n1,,IC50 ([2]; hct-116): Not Active
3800,,Cc1nc(N(C)c2ccc3c(c2)c2ccccc2n3C)c2ccccc2n1,2.4,
1160,,CN(c1ccc2c(c1)c1ccccc1n2C)c1cc(Cl)nc2ccccc12,16.7,
,Not Active,Cc1cc(N(C)c2ccc3oc4ccccc4c3c2)c2ccccc2n1,844,
,Not Active,Cc1cc(N(C)c2ccc3c(c2)c2ccccc2n3Cc2ccccc2)c2ccccc2n1,,IC50 ([2]; hct-116): Not Active
1130,,Cc1cc(N(C)c2ccc3c(c2)c2ccccc2n3C)c2ccccc2n1,0.07,IC50 [3]: 0.28 nM; Activity [9]: 0%; Activity [10]: Active; Activity [11]: 40%; Activity [12]: 8%; IC50 [4]: 0.47 nM; Activity [13]: Dose-dependent effect; IC50 [5]: 0.53 nM; Activity [14]: 35%; Activity [15]: 25%; Activity [16]: 12%; IC50 [6]: 0.6 nM; GI50 at 72 h [17]: 3.23 nM; IC50 [7]: 0.36 nM; Activity [18]: Dose-dependent effect; Activity [19]: 82%; IC50 [8]: 0.54 nM; Activity [20]: 18%; Activity [21]: Non-Toxic; Activity [22]: 80%
3140,,CN(c1ccc2c(c1)c1ccccc1n2C)c1nc(Cl)nc2ccccc12,1.06,
,Not Active,Cc1cc(N(C)c2ccc3c(c2)c2cc([N+](=O)[O-])ccc2n3C)c2ccccc2n1,,IC50 ([2]; hct-116): Not Active
